Measurements published in patent US20160016951A1 (Merck Patent GmbH, priority 2014, published 2016).
Counter-ions that a name gives are not always drawn.

molecular target: T1, CDK8 (CDK8/CycC) (Homo sapiens, UniProt P49336); test: FRET based Lanthascreen binding competition assay; details: not given
T1 construct: purchased Invitrogen PV4402
Method: FRET based Lanthascreen binding competition assay: A dye-labeled ATP competitive probe served as a FRET acceptor upon binding to CDK8 labeled with a strepavidin —Eu-chelate (via abiotinylated anti His antibody). […] In case this probe was competed by an inhibitor as such a signal cannot be generated any more. The CDK8 used for this assay was a protein co-expressed with CycC.
The assay procedure for an assay in a 1536 well plate was performed according to the following: 2 μL CDK8/biotin-anti-His Ab/SA-Eu mix in Assay buffer were pipetted into the wells of a micro plate.
1 μL compound in 20 mM Hepes buffer/5% DMSO was added. The plate was shaken for 30 sec and incubated for 20 min at RT. 2 μL Alexa647-probe in assay buffer were added. The plate was shaken for 30 sec again and incubated for 60 min at RT in the dark. Then the plate was read out on a Perkin Elmer Envision (mode LANCE/TRF, excitation 340 nm emission 650 nm).

T1 sequence (P49336 whole entry): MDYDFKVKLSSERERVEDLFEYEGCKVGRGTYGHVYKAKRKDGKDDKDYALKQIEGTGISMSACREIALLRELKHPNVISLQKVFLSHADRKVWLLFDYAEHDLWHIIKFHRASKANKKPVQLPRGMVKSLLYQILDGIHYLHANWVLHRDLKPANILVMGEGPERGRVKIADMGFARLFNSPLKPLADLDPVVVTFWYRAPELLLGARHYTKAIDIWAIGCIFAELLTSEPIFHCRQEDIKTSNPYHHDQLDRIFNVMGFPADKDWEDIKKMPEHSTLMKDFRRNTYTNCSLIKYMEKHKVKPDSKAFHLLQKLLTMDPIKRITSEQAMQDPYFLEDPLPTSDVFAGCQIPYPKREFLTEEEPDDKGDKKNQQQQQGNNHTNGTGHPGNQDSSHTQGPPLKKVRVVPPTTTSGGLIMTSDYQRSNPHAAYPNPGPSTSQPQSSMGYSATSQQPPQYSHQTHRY
T1 sequence (P24863 whole entry partner): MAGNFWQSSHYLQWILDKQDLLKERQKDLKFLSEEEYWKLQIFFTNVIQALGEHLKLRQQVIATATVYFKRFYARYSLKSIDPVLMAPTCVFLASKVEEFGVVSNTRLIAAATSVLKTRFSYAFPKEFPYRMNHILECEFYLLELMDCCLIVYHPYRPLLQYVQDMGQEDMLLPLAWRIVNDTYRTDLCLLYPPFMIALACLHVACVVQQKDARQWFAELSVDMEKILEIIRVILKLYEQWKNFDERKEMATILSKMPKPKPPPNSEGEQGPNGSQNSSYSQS

`Cn1cc(-c2ccc(-c3cncc4ccc(C(=O)O)cc34)cc2)cn1` [Compound 95, 4-(4-(1-methyl-1H-pyrazol-4-yl)phenyl)isoquinoline-6-carboxylic acid hydrochloride] gave an IC50 of less than 10 nM.

same assay, conditions: 5 nM CDK8/CycC, 10 nM Alexa647-Tracer, 1% DMSO, 60 min at RT; read-out: IC50 CDK8 binding

`CNCc1ccc2cncc(-c3ccc4c(c3)CS(=O)(=O)N4C)c2n1` [Compound 53, Methyl-[8-(1-methyl-2,2-dioxo-2,3-dihydro-1H-benzo[c]isothiazol-5-yl)-[1,6]naphthyridin-2-ylmethyl]-amine] and `CC(=O)NCc1ccc2cncc(-c3ccc4c(c3)CS(=O)(=O)N4C)c2n1` [Compound 38, N-[8-(1-Methyl-2,2-dioxo-2,3-dihydro-1H-benzo[c]isothiazol-5-yl)-[1,6]naphthyridin-2-ylmethyl]-acetamide] fall in the same range of IC50: 10 to 100 nM for the first, 10 to 100 nM for the second.

First: O=C(c1ccc2cnccc2n1)N1CCC[C@H]1c1ccc(Cl)cc1 [Compound 37, (S)-(2-(4-chlorophenyl)pyrrolidin-1-yl)(1,6-naphthyridin-2-yl)methanone]
Second: O=C(c1ccc2cncc(Br)c2n1)N1CCC[C@H]1c1ccc(Br)cc1 [Compound 89, (S)-(8-bromo-1,6-naphthyridin-2-yl)(2-(4-bromophenyl)pyrrolidin-1-yl)methanone]
The IC50 of the first is lower: less than 10 nM for the first, 10 to 100 nM for the second. The first is the more potent here.

`Cn1cc(-c2ccc(-c3cncc4ccc(NS(=O)(=O)C5(C)CC5)cc34)cc2)cn1` [Compound 168, 1-Methyl-cyclopropanesulfonic acid {4-[4-(1-methyl-1H-pyrazol-4-yl)-phenyl]-isoquinolin-6-yl}-amide] and `Cn1cc(-c2ccc(-c3cncc4ccc(NS(C)(=O)=O)cc34)cc2)cn1` [Compound 98, N-{4-[4-(1-Methyl-1H-pyrazol-4-yl)-phenyl]-isoquinolin-6-yl}-methanesulfonamide] cannot be ordered by IC50: less than 10 nM for the first, less than 10 nM for the second.

First: COC1CN(C(=O)c2ccc3c(N)ncc(-c4ccc(-c5cnn(C(C)C)c5)cc4)c3n2)C1 [Compound 161, (5-amino-8-(4-(1-isopropyl-1H-pyrazol-4-yl)phenyl)-1,6-naphthyridin-2-yl)(3-methoxyazetidin-1-yl)methanone]
Second: COC1CN(C(=O)c2ccc3c(N)ncc(-c4ccc(-c5ccn(C)n5)cc4)c3n2)C1 [Compound 160, (5-amino-8-(4-(1-methyl-1H-pyrazol-3-yl)phenyl)-1,6-naphthyridin-2-yl)(3-methoxyazetidin-1-yl)methanone]
The IC50 of the first is lower: 10 to 100 nM for the first, 101 to 500 nM for the second.

`Cn1cc(-c2ccc(-c3cncc4ccc(C(N)=O)nc34)c(F)c2)cn1` [Compound 14, 8-(2-fluoro-4-(1-methyl-1H-pyrazol-4-yl)phenyl)-1,6-naphthyridine-2-carboxamide] and `CNC(=O)c1ccc2cncc(-c3ccc(-c4cnn(C)c4)cc3F)c2n1` [Compound 17, 8-(2-fluoro-4-(1-methyl-1H-pyrazol-4-yl)phenyl)-N-methyl-1,6-naphthyridine-2-carboxamide] cannot be ordered by IC50: less than 10 nM for the first, less than 10 nM for the second.

Compared with `CNC(=O)c1ccc2cncc(-c3ccc(-c4cnn(C)c4)cc3C)c2n1` [Compound 43, N-methyl-8-(2-methyl-4-(1-methyl-1H-pyrazol-4-yl)phenyl)-1,6-naphthyridine-2-carboxamide], `C[C@H](NC(=O)c1ccc2cncc(-c3ccc(-c4cnn(C)c4)cc3)c2n1)c1ccccc1` [Compound 27, (S)-8-(4-(1-methyl-1H-pyrazol-4-yl)phenyl)-N-(1-phenylethyl)-1,6-naphthyridine-2-carboxamide] is lower in IC50: 10 to 100 nM for the first, less than 10 nM for the second. The second is the more potent here.

`N#Cc1ccc2cncc(-c3ccc4c(c3)CS(=O)(=O)N4)c2c1` [Compound 193, 4-(2,2-dioxido-1,3-dihydrobenzo[c]isothiazol-5-yl)isoquinoline-6-carbonitrile] and `Cn1ncc2cc(-c3cncc4ccc(C#N)cc34)ccc21` [Compound 120, 4-(1-methyl-1H-indazol-5-yl)isoquinoline-6-carbonitrile] fall in the same range of IC50: 10 to 100 nM for the first, 10 to 100 nM for the second.

First: Cn1cc(-c2ccc(-c3cncc4ccc(NS(=O)(=O)C5CC5)cc34)cc2)cn1 [Compound 162, Cyclopropanesulfonic acid {4-[4-(1-methyl-1H-pyrazol-4-yl)-phenyl]-isoquinolin-6-yl}-amide]
Second: Cn1cc(-c2ccc(-c3cncc4ccc(S(C)(=N)=O)cc34)cc2)cn1 (centres unmarked) [Compound 190, 6-[imino(methane)sulfinyl]-4-[4-(1-methyl-1H-pyrazol-4-yl)phenyl]isoquinoline]
The IC50 of the first is lower: less than 10 nM for the first, 10 to 100 nM for the second. The first is the more potent here.

First: Cn1cc(-c2ccc(-c3cncc4ccc(N5CCNCC5)nc34)cc2)cn1 [Compound 72, 8-(4-(1-methyl-1H-pyrazol-4-yl)phenyl)-2-(piperazin-1-yl)-1,6-naphthyridine]
Second: Cn1cc(-c2ccc(-c3cncc4ccc(C(=O)N5CCCC(F)(F)C5)nc34)cc2)cn1 [Compound 82, (3,3-difluoropiperidin-1-yl)(8-(4-(1-methyl-1H-pyrazol-4-yl)phenyl)-1,6-naphthyridin-2-yl)methanone]
The IC50 of the first is higher: 501 to 1000 nM for the first, 10 to 100 nM for the second.

`CN1C(=O)CCc2cc(-c3cncc4ccc(C(=O)N5CC(F)(F)C5)cc34)ccc21` [Compound 158, 6-[6-(3,3-Difluoro-azetidine-1-carbonyl)-isoquinolin-4-yl]-1-methyl-3,4-dihydro-1H-quinolin-2-one] and `CN1C(=O)Cc2ccc(-c3cnc(N)c4ccc(C(=O)N5CC(F)(F)C5)cc34)cc21` [Compound 164, 6-[1-Amino-6-(3,3-difluoro-azetidine-1-carbonyl)-isoquinolin-4-yl]-1-methyl-1,3-dihydro-indol-2-one] fall in the same range of IC50: 10 to 100 nM for the first, 10 to 100 nM for the second.

First: O=C(c1ccc2cnccc2c1)N1CCC[C@H]1c1ccccc1 [Compound 122, (S)-isoquinolin-6-yl(2-phenylpyrrolidin-1-yl)methanone]
Second: Cc1cncc2ccc(C(=O)N[C@@H](C)c3ccccc3)nc12 [Compound 62, (S)-8-methyl-N-(1-phenylethyl)-1,6-naphthyridine-2-carboxamide]
The IC50 of the first is lower: 10 to 100 nM for the first, 101 to 500 nM for the second.

`COC1CN(C(=O)c2ccc3c(N)ncc(-c4ccc5c(cnn5C)c4)c3n2)C1` [Compound 140, (5-amino-8-(1-methyl-1H-indazol-5-yl)-1,6-naphthyridin-2-yl)(3-methoxyazetidin-1-yl)methanone] and `COC1CN(C(=O)c2ccc3c(N)ncc(-c4ccc5c(c4)CC(=O)N5C)c3c2)C1` [Compound 177, 5-[1-Amino-6-(3-methoxy-azetidine-1-carbonyl)-isoquinolin-4-yl]-1-methyl-1,3-dihydro-indol-2-one] fall in the same range of IC50: 10 to 100 nM for the first, 10 to 100 nM for the second.

First: Cn1cc(-c2ccc(-c3cncc4ccc(C(=O)N5CC(C)(F)C5)nc34)cc2)cn1 [Compound 180, (3-fluoro-3-methylazetidin-1-yl)(8-(4-(1-methyl-1H-pyrazol-4-yl)phenyl)-1,6-naphthyridin-2-yl)methanone]
Second: COC1(C)CN(C(=O)c2ccc3cncc(-c4ccc(-c5cnn(C)c5)cc4)c3c2)C1 [Compound 185]
The IC50 of the first is lower: less than 10 nM for the first, 10 to 100 nM for the second. The first is the more potent here.

First: COCCN(c1ccc2cncc(-c3ccc(-c4cnn(C)c4)cc3)c2c1)S(C)(=O)=O [Compound 167, N-(2-methoxyethyl)-N-(4-(4-(1-methyl-1H-pyrazol-4-yl)phenyl)isoquinolin-6-yl)methanesulfonamide]
Second: CN(c1ccc2cncc(-c3ccc(-c4cnn(C)c4)cc3)c2c1)S(C)(=O)=O [Compound 139, N-methyl-N-(4-(4-(1-methyl-1H-pyrazol-4-yl)phenyl)isoquinolin-6-yl)methanesulfonamide]
The IC50 of the first is higher: 101 to 500 nM for the first, 10 to 100 nM for the second.

Compared with `COC1CN(C(=O)c2ccc3cncc(-c4ccc5c(cnn5CC(C)(C)O)c4)c3c2)C1` [Compound 132, (4-(1-(2-hydroxy-2-methylpropyl)-1H-indazol-5-yl)isoquinolin-6-yl)(3-methoxyazetidin-1-yl)methanone], `COC1CN(C(=O)c2ccc3cncc(-c4ccc(-c5cnn(CC(C)(C)O)c5)cc4)c3c2)C1` [Compound 131, (4-(4-(1-(2-hydroxy-2-methylpropyl)-1H-pyrazol-4-yl)phenyl)isoquinolin-6-yl)(3-methoxyazetidin-1-yl)methanone] is lower in IC50: 101 to 500 nM for the first, 10 to 100 nM for the second.

First: CN1c2ccc(-c3cncc4ccc(CO)nc34)cc2CS1(=O)=O [Compound 51, [8-(1-Methyl-2,2-dioxo-2,3-dihydro-1H-benzo[c]isothiazol-5-yl)-[1,6]naphthyridin-2-yl]-methanol]
Second: CN1c2ccc(-c3cncc4ccc(C(=O)NC5CC5)nc34)cc2CS1(=O)=O [Compound 21, 8-(1-Methyl-2,2-dioxo-2,3-dihydro-1H-benzo[c]isothiazol-5-yl)-[1,6]naphthyridine-2-carboxylic acid cyclopropylamide]
The IC50 of the first is higher: 10 to 100 nM for the first, less than 10 nM for the second.

First: CC(C)(O)Cn1cc2cc(-c3cncc4ccc(NS(C)(=O)=O)cc34)ccc2n1 [Compound 151, N-(4-(2-(2-hydroxy-2-methylpropyl)-2H-indazol-5-yl)isoquinolin-6-yl)methanesulfonamide]
Second: CC(C)(O)Cn1cc(-c2ccc(-c3cncc4ccc(C(=O)N5CCCC5)cc34)cc2)cn1 [Compound 134]
The IC50 of the first is lower: less than 10 nM for the first, 10 to 100 nM for the second.

First: Cn1cc(-c2ccc(-c3cncc4ccc(C(N)=O)cc34)cc2)cn1 [Compound 96, 4-(4-(1-methyl-1H-pyrazol-4-yl)phenyl)isoquinoline-6-carboxamide]
Second: Cn1cc(-c2ccc(-c3cncc4ccc(N5C(=O)CCC5=O)cc34)cc2)cn1 [Compound 126, 1-{4-[4-(1-Methyl-1H-pyrazol-4-yl)-phenyl]-isoquinolin-6-yl}-pyrrolidine-2,5-dione]
The IC50 of the first is lower: less than 10 nM for the first, 101 to 500 nM for the second.

Molecule `CNC(=O)c1ccc2c(N)ncc(-c3ccc4c(c3)CS(=O)(=O)N4C)c2n1` [Compound 32, 5-Amino-8-(1-methyl-2,2-dioxo-2,3-dihydro-1H-benzo[c]isothiazol-5-yl)-[1,6]naphthyridine-2-carboxylic acid methylamide] has an IC50 of less than 10 nM.
